This is an account of results in ChEMBL document CHEMBL1158981, “An Unusual Sulfur-Containing Diketopiperazine from the Bermudian Sponge Tedania ignis” (J Nat Prod, 1991).

For this data set, the system named is Artemia. Nature of the data set: Toxicity against brine shrimp. It counts as organism-based. The settings on record: in vivo.

For `O=C1[C@@H]2CCCN2C(=O)[C@H]2CSCN12`, the Activity entry is “Non-toxic”.
